Reference: patent publication US20230082929A1, “METHODS OF GENERATING AND USING SENESCENT-INDUCED CELLS FOR TREATMENT OF CANCER AND COMPOSITIONS RELATING THERETO” (The Wistar Institute of Anatomy and Biology, priority 2020, published 2023)

Biological target: T1, TOP1cc (Homo sapiens, UniProt P11387)
T1 sequence (P11387 1-765): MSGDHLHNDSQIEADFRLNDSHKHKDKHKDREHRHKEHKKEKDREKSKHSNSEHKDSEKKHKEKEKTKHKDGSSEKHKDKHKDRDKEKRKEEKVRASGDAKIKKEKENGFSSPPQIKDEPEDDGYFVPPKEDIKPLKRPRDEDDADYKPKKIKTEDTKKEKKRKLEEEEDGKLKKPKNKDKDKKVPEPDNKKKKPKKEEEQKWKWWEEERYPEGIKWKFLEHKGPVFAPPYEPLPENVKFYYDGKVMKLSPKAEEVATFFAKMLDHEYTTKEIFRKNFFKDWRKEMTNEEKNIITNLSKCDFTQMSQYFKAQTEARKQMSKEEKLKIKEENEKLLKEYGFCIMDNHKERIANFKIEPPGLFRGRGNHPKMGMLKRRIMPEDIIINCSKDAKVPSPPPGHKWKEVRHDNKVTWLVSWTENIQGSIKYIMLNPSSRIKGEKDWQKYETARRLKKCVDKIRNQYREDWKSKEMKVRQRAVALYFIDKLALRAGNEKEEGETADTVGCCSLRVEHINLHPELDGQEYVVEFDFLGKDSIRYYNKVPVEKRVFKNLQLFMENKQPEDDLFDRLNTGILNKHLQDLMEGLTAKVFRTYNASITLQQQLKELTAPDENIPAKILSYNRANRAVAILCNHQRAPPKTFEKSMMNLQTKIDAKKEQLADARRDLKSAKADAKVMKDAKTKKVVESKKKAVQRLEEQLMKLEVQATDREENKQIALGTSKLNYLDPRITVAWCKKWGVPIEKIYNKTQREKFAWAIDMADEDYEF
Experiment: TOP1cc induction in CPT-treated IMR90 cells (chromatin fragment extraction, slot blot)
Type: cell-based
Design: endogenous in cells; host or cells: IMR90 human fibroblasts (senescent or proliferating, with or without shHMGB2)
Conditions: IMR90 cells treated with two doses of CPT (5 μM or 50 μM, 30 minutes)
Experimental: For chromatin fragments extraction, proliferating IMR90 cells were treated with 5 μM or 50 μM Camptothecin for 30 minutes to induce low or high levels of TOP1cc, respectively. Cells then were incubated with hypotonic buffer (10 mM Tris, pH 7.4, 30 mM NaCl, 3 mM MgCl2, 0.1% NP40), supplemented with protease inhibitor cocktail, on ice for 10 mins (Dou et al., 2017). The cells were then centrifuged at 300×g for 3 mins at 4° C. The supernatant was carefully removed, and the resulting pellets were incubated with benzonase buffer (50 mM Tris pH 7.5, 300 mM NaCl, 0.5% NP40, 2.5 mM MgCl2) with protease inhibitor cocktail, supplemented with 10 U of benzonase (Sigma Cat. No: E1014), on ice, for 30 min. The product was centrifuged again at 300×g for 3 mins at 4° C., and benzonase was inactivated by addition of 15 mM EDTA. The resulting supernatant contains chromatin fragments and soluble nuclear proteins. For the negative controls, buffer without benzonase was used and the resulting supernatant only contains soluble nuclear proteins without chromatin fragments. The product was then diluted 5 times with PBS. Slot blot were performed to confirm the TOP1cc level.
Human Topoisomerase 1 ICE Assay Kit (TopoGEN. Cat. No:TG1020-1) was used to isolate protein-DNA samples which contain TOP1-DNA covalent complex (TOP Ice) for slot blot analysis. […] Quantification was performed using NIH Image J software.

**Q.** `CC[C@@]1(O)C(=O)OCc2c1cc1n(c2=O)Cc2cc3ccccc3nc2-1` [CPT, Camptothecin] was tested. Which TOP1cc induction did it give?
**A.** Its TOP1cc induction is “induced TOP1cc in a dose-dependent manner”.
